What was measured:
HeLa cells = assay: Proliferation assay (crystal violet); format: cell-based; settings: Homo sapiens, 96 h, 4 days incubation, read-out: Inhibition of proliferation HeLa IC50
Method: Cultivated tumor cells (cells were ordered from ATCC, except HeLa-MaTu and HeLa-MaTu-ADR, which were ordered from EPO-GmbH, Berlin) were plated at a density of 1000 to 5000 cells/well, depending on the growth rate of the respective cell line, in a 96-well multititer plate in 200 μL of their respective growth medium supplemented 10% fetal calf serum. After 24 hours, the cells of one plate (zero-point plate) were stained with crystal violet (see below), while the medium of the other plates was replaced by fresh culture medium (200 μl), to which the test substances were added in various concentrations (0 μM, as well as in the range of 0.001-10 μM; the final concentration of the solvent dimethyl sulfoxide was 0.5%). The cells were incubated for 4 days in the presence of test substances. Cell proliferation was determined by staining the cells with crystal violet: the cells were fixed by adding 20 μl/measuring point of an 11% glutaric aldehyde solution for 15 minutes at room temperature. After three washing cycles of the fixed cells with water, the plates were dried at room temperature. The cells were stained by adding 100 μl/measuring point of a 0.1% crystal violet solution (pH 3.0). After three washing cycles of the stained cells with water, the plates were dried at room temperature. The dye was dissolved by adding 100 μl/measuring point of a 10% acetic acid solution. Absorption was determined by photometry at a wavelength of 595 nm. The change of cell number, in percent, was calculated by normalization of the measured values to the absorption values of the zero-point plate (=0%) and the absorption of the untreated (0 μm) cells (=100%). The IC50 values were determined by means of a 4 parameter fit.

human Bub1 = molecular target: T1, human Bub1 (Homo sapiens, UniProt O43683); assay: Bub1 kinase assay (TR-FRET); format: biochemical; settings: 10 μM ATP
T1 construct: catalytic domain of human Bub1 (amino acids 704-1085); His6 (N); made in house; host or cells: insect cells (Hi5)
T1 sequence (O43683 704-1085): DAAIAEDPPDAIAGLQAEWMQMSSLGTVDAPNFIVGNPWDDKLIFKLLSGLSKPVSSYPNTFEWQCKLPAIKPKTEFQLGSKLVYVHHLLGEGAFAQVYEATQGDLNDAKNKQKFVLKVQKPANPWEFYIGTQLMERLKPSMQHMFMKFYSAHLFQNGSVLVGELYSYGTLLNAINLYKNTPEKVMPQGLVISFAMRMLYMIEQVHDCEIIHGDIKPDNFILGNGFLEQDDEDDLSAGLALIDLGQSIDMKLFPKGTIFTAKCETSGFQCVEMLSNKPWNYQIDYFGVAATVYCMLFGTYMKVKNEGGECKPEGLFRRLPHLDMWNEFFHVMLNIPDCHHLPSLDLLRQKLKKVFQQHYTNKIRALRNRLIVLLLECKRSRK
From the text: Bub1-inhibitory activity of compounds of the present invention was quantified employing the Bub1 TR-FRET assay as described in the following paragraphs.
N-terminally His6-tagged recombinant catalytic domain of human Bub1 (amino acids 704-1085), expressed in insect cells (Hi5) and purified by Ni-NTA affinity chromatography and subsequent size exclusion chromatography, was used as enzyme. As substrate for the kinase reaction the biotinylated peptide biotin-Ahx-VLLPKKSFAEPG (C-terminus in amid form) was used which can be purchased e.g. form the company Biosyntan (Berlin, Germany).
For the assay 50 nl of a 100 fold concentrated solution of the test compound in DMSO was pipetted into a black low volume 384 well microtiter plate (Greiner Bio-One, Frickenhausen, Germany), 2 μl of a solution of Bub1 in aqueous assay buffer [50 mM Tris/HCl pH 7.5, 10 mM magnesium chloride (MgCl2), 200 mM potassium chloride (KCl), 1.0 mM dithiothreitol (DTT), 0.1 mM sodium ortho-vanadate, 1% (v/v) glycerol, 0.01% (w/v) bovine serum albumine (BSA), 0.005% (v/v) Trition X-100 (Sigma), 1× Complete EDTA-free protease inhibitor mixture (Roche)] were added and the mixture was incubated for 15 min at 22° C. to allow pre-binding of the test compounds to the enzyme before the start of the kinase reaction. Then the kinase reaction was started by the addition of 3 μl of a solution of adenosine-tri-phosphate (ATP, 16.7 μM=>final conc. in the 5 μl assay volume is 10 μM) and substrate (1.67 μM=>final conc. in the 5 μl assay volume is 1 μM) in assay buffer and the resulting mixture was incubated for a reaction time of 60 min at 22° C. The concentration of Bub1 was adjusted depending of the activity of the enzyme lot and was chosen appropriate to have the assay in the linear range, typical concentrations were in the range of 200 ng/ml. The reaction was stopped by the addition of 5 μl of a solution of TR-FRET detection reagents (0.2 μM streptavidine-XL665 [Cisbio Bioassays, Codolet, France] and 1 nM anti-phosho-Serine antibody [Merck Millipore, cat. #35-001] and 0.4 nM LANCE EU-W1024 labeled anti-mouse IgG antibody [Perkin-Elmer, product no. AD0077, as an alternative a Terbium-cryptate-labeled anti-mouse IgG antibody from Cisbio Bioassays can be used]) in an aqueous EDTA-solution (50 mM EDTA, 0.2% (w/v) bovine serum albumin in 100 mM HEPES pH 7.5).
The resulting mixture was incubated 1 h at 22° C. to allow the formation of complex between the phosphorylated biotinylated peptide and the detection reagents. Subsequently the amount of phosphorylated substrate was evaluated by measurement of the resonance energy transfer from the Eu-chelate to the streptavidine-XL. Therefore, the fluorescence emissions at 620 nm and 665 nm after excitation at 350 nm was measured in a TR-FRET reader, e.g. a Rubystar or Pherastar (both from BMG Labtechnologies, Offenburg, Germany) or a Viewlux (Perkin-Elmer). The ratio of the emissions at 665 nm and at […] was taken as the measure for the amount of phosphorylated substrate. The data were normalised (enzyme reaction without inhibitor=0% inhibition, all other assay components but no enzyme=100% inhibition).

IC50 (HeLa cells)	IC50 (human Bub1)	Compound
3.3 µM	> 20 µM	Cc1noc(Nc2cnc(C(F)(F)F)cn2)c1C(=O)Nc1ccc(OC[C@@H]2CCN(CCC(F)(F)F)C2)nc1 [Example 5a, 3-Methyl-5-{[5-(trifluoromethyl)pyrazin-2-yl]amino}-N-(6-{[(3R)-1-(3,3,3-trifluoro-propyl)pyrrolidin-3-yl]methoxy}pyridin-3-yl)-1,2-oxazole-4-carboxamide]
2.7 µM	> 20 µM	COc1ccc(NC(=O)c2c(C)noc2Nc2cnc(C(F)(F)F)cn2)cn1 [Example 2c, N-(6-methoxypyridin-3-yl)-3-methyl-5-{[5-(trifluoromethyl)pyrazin-2-yl]amino}-1,2-oxazole-4-carboxamide]
2.8 µM	> 20 µM	Cc1noc(Nc2cnc(C(F)(F)F)cn2)c1C(=O)Nc1ccc(OC[C@@H]2CCN(CC(F)(F)F)C2)nc1 [Example 4a, 3-Methyl-N-(6-{[(3R)-1-(2,2,2-trifluoroethyl)pyrrolidin-3-yl]methoxy}pyridin-3-yl)-5-{[5-(trifluoromethyl)pyrazin-2-yl]amino}-1,2-oxazole-4-carboxamide]
3.4 µM	> 20 µM	Cc1noc(Nc2cnc(C(F)(F)F)cn2)c1C(=O)Nc1ccc(OC[C@@H]2CCN(CC(F)F)C2)nc1 [Example 3a, N-(6-{[(3R)-1-(2,2-difluoroethyl)pyrrolidin-3-yl]methoxy}pyridin-3-yl)-3-methyl-5-{[5-(trifluoromethyl)pyrazin-2-yl]amino}-1,2-oxazole-4-carboxamide]
4 µM	> 20 µM	Cc1noc(Nc2cnc(C(F)(F)F)cn2)c1C(=O)Nc1ccc(OC[C@H]2CCN(CC(F)F)C2)nc1 [Example 7a, N-(6-{[(3S)-1-(2,2-difluoroethyl)pyrrolidin-3-yl]methoxy}pyridin-3-yl)-3-methyl-5-{[5-(trifluoromethyl)pyrazin-2-yl]amino}-1,2-oxazole-4-carboxamide]
3.1 µM	> 20 µM	Cc1noc(Nc2cnc(C(F)(F)F)cn2)c1C(=O)Nc1ccc(OC[C@H]2CCN(CCC(F)(F)F)C2)nc1 [Example 9a, 3-Methyl-5-{[5-(trifluoromethyl)pyrazin-2-yl]amino}-N-(6-{[(3S)-1-(3,3,3-trifluoro-propyl)pyrrolidin-3-yl]methoxy}pyridin-3-yl)-1,2-oxazole-4-carboxamide]
1.9 µM	> 20 µM	Cc1noc(Nc2cnc(C(F)(F)F)cn2)c1C(=O)Nc1ccc(OC[C@H]2CCN(CC(F)(F)F)C2)nc1 [Example 8a, 3-Methyl-N-(6-{[(3S)-1-(2,2,2-trifluoroethyl)pyrrolidin-3-yl]methoxy}pyridin-3-yl)-5-{[5-(trifluoromethyl)pyrazin-2-yl]amino}-1,2-oxazole-4-carboxamide]
